Test results published in patent publication US5459256A, “Lipophilic, aminohydrolase-activated prodrugs” (priority 1991, dated 1995).
Read-outs that look alike come from different tables or passages of the source.

Experiments:
[1] = system: HIV-1/IIIB (CD4^+ ATH8 cells); experiment: HIV cytopathic effect inhibition assay in ATH8 cells (% protection); format: cell-based
Experimental: (§1) HIV Cytopathic Effect Inhibition Assay.
(§2) The HIV cytopathic effect inhibition assay was performed as previously described. (Mitsuya, H. & Broder, S. Proc. Nat. Acad. Sci. USA 1986, 83, 1911) Briefly, 200,000 target CD4^+ ATH8 cells were exposed to cell-free HIV-1/IIIB at a dose of 43 (or 1087 for compound 1g) TCID50 (50% tissue culture infectious dose) for 1 h, resuspended in 2 ml of fresh culture media containing interleukin 2, and cultured at 37° C. with or without test compounds in 5% CO2 -containing humidified air. On day 8 in culture, the viable cells were counted by using the dye exclusion method. All compounds, including inactives, were evaluated a minimum of two times in separate experiments. Data reported in Table II are from representative tests. The % protection against the virus was determined by the following formula: 100 times [(the number of viable cells exposed to HIV-1 and cultured in the presence of the compound minus the number of viable cells exposed to HIV-1 and cultured in the absence of compound) divided by (the number of viable cells cultured alone minus the number of viable cells exposed to HIV-1 and cultured in the absence of the compound)]. The % toxicity of a compound on the target cells was determined by the following formula: 100 times [1 minus (the number of total viable cells cultured in the presence of the compound divided by the number of total viable cells cultured alone)]. Calculated percentages equal to or less than zero are expressed as 0%.
^a ATH8 cells were exposed to HIV1/IIIB per cell for 1 hr and
cultured in the presence of various concentrations of each compound. On
day 8, the total viable cells were counted. Orders of numbers in the
column for concentrations correspond to the orders of numbers in other

[2] = system: CD4^+ ATH8 cells; experiment: Toxicity on ATH8 target cells (% toxicity, dye exclusion); format: cell-based
Experimental: as §1
as §2, with “(Mitsuya, H. & Broder, S. Proc. Nat. Acad. Sci. USA 1986, 83, 1911) Briefly, 200,000 target CD4^+ ATH8 cells were exposed to cell-free HIV-1/IIIB at a dose of 43 (or 1087 for compound 1g) TCID50 (50% tissue culture infectious dose) for 1 h, resuspended in 2 ml of fresh culture media containing interleukin 2, and cultured at 37° C. with or without test compounds in 5% CO2 -containing humidified air.” left out

[3] = biological target: T1, adenosine deaminase (adenosine aminohydrolase, EC 3.5.4.4) (Bos taurus, UniProt P56658); experiment: Enzymatic deamination by adenosine deaminase (HPLC); settings: for half-life at 50 µM: bovine, adenosine deaminase
T1 sequence (P56658 1-363): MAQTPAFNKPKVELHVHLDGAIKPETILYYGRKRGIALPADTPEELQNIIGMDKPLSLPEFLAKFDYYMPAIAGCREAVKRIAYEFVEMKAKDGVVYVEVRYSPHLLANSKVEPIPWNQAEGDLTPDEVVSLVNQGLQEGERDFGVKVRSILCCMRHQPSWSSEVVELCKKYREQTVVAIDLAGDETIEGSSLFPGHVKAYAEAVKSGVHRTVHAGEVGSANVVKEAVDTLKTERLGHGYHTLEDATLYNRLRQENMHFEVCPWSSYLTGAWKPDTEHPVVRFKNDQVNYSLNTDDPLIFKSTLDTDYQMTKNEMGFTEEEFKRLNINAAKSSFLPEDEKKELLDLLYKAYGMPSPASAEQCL
Experimental: FIG. 1. Deamination of dideoxyadenosine analogues by adenosine deaminase. Hydrolysis kinetics and 2'-F-dd-ara-I formation during the incubation of 50 μM N^6 -CH3 -2'-F-dd-ara-A (1f) with 0.7 units/mL of adenosine deaminase at 37° C. A unit of adenosine deaminase is the amount of enzyme which hydrolyzes a standard substrate (e.g., adenosine) at the rate of 1.0 μmole/min at 25° C. and pH 7.5. […] Insert: Adenosine deaminase hydrolysis kinetics for 50 μM ddA and 2'-F-dd-ara-A. The hydrolysis curve for ddA has been extrapolated from kinetics obtained with 0.07 units/mL of adenosine deaminase under identical conditions.
A 50 μl aliquot of a 10 mg/ml suspension of adenosine deaminase (adenosine aminohydrolase, EC 3.5.4.4) from calf intestinal mucosa was centrifuged at 600×g for 3 min. The residue remaining after removal of the (NH4)2 SO4 supernatant was dissolved in 0.5 ml pH 7.4 tris(hydroxymethyl)-aminomethane (Tris) buffer to give an enzyme solution of 1 mg/ml (274 units/ml). […] A pH 7.4 buffer was prepared by adjusting 0.01M Tris to pH 7.4 with 0.5N HCl, The 1.0 HCl , HPLC-grade acetonitrile, monobasic potassium phosphate, sodium hydroxide and ultrapure Tris were all commercially available and were used without further purification.
Enzymatic Deamination of Adenosine Analogues. […] A 50 μL aliquot of substrate solution was diluted with 0.95 ml 0.01M Tris buffer in a 1.5-mL Eppendorf tube and equilibrated at 37° C. in a Dubnoff metabolic shaking incubator. Reaction was initiated by addition of 2.5 μL of adenosine deaminase solution (0.7 unit). At specified time intervals, a 50 μL aliquot of the reaction mixture was withdrawn and quenched by mixing with 0.45 mL cold 2 μM 2'-deoxycoformycin. This diluted sample was ultrafiltered to remove enzyme in a Centrifree Micropartition unit by centrifugation at 600×g at 4° C. in a high speed refrigerated centrifuge. The decrease in substrate concentration was monitored by HPLC analysis of the resultant ultrafiltrate (see below). The ability of 2'-deoxycoformycin to inhibit deamination under the above conditions was evaluated by adding 2 μL of 1.0 mM inhibitor to diluted substrate solutions at the time of equilibration. Reaction, sampling and analysis were carried out as above. […] Initial hydrolysis rates for each substrate concentration were measured through linear least-squares curve fitting of the concentration versus time data for reaction of the first 10% of substrate. KM and vmax values for each substrate were then determined from a graphical lineweaver-Burke plot of these initial rates (FIG. 1).
HPLC Analysis of Dideoxypurine Nucleosides.
Concentrations of dideoxynucleosides were measured by the HPLC analysis of 100 μL aliquots of ultrafiltered samples. A 4.6×250 mm 5-μm Ultrasphere-ODS column, protected by a Waters guard column packed with 37-50 μm Vydac 201SC, was eluted with 10-20% CH3 CN in 0.01M pH 7.0 phosphate buffer at a flow rate of 1.0 mL/min. Dideoxynucleosides and deamination products were detected at the appropriate wavelength of maximum absorption with a Gilson 116 variable wavelength detector. Peak identity was determined from coincidence of retention times with standards and by comparison of on-the-fly UV spectra obtained with a Perkin-Elmer LC-235 diode array detector. Peak areas and peak heights were measured simultaneously on a Spectra-Physics SP4200 computing integrator.

[4] = system: ADA; settings: vs ddA, determined previously, slightly different conditions; cited from earlier work
[5] = Octanol-water partition coefficient, microscale shake-flask; settings: octanol/ph 7.0 buffer
Experimental: Measurement of Octanol-Water Partition Coefficients.
n-Octanol-water partition coefficients (P) were determined by a microscale shake-flask procedure, (Ford, H. et al Abstracts of Papers, 200th National Meeting of the American Chemical Society, Washington, D.C.; American Chemical Society: Washington, D.C., 1990; CARB 13) which was modification of an earlier method (Nahum, A. & Horvath, C. J. Chromatogr. 1980, 192, 315). A 20 μL aliquot of a 0.5 mg/mL DMSO solution of the dideoxynucleoside was dissolved in 1.0 mL of octanol-saturated, pH 7.0, 0.01M potassium phosphate buffer. This was mixed thoroughly with 1.0 ml of buffer-saturated n-octanol in a 2-mL Mixxor apparatus at 24°-26° C. and then allowed to stand for 15 min. The phases were separated, centrifuged at 600×g for 5 min, and the relative concentration of sample in each phase determined by HPLC analysis of a 50 μl aliquot. The partition coefficient was calculated by dividing the absolute area of the appropriate integrated peak from the octanol phase by that of the buffer phase (Table I).
Octanol/pH 7.0 buffer partition coefficients were determined using a newly developed microscale method. […] The addition of a methyl group normally increases the log P value of a compound by about 0.5.

[6] = system: human immunodeficiency virus (HIV); settings: background statement; cited from earlier work
[7] = Toxicity on ATH8 target cells (% toxicity, dye exclusion); format: cell-based; settings: human, ath8 cells, 10 μM
Experimental: as §1
as §2, with “(Mitsuya, H. & Broder, S. Proc. Nat. Acad. Sci. USA 1986, 83, 1911) Briefly, 200,000 target CD4^+ ATH8 cells were exposed to cell-free HIV-1/IIIB at a dose of 43 (or 1087 for compound 1g) TCID50 (50% tissue culture infectious dose) for 1 h, resuspended in 2 ml of fresh culture media containing interleukin 2, and cultured at 37° C. with or without test compounds in 5% CO2 -containing humidified air.” left out

[8] = in vivo; cited from earlier work

Nc1ncnc2c1ncn2[C@@H]1O[C@H](CO)C[C@@H]1F [Compound 1a, 2', 3'-dideoxy-2'-fluoroarabinosyladenine, reference compound]
anti-HIV activity with supplementary ADA (in words) ([1]; ATH8 cells, ADA (0.7 U/mL) added): did not change its activity
anti-HIV activity in the presence of dCF (in words) ([1]; ATH8 cells, dCF added): no important changes in the protection
toxicity in the presence of dCF (in words) [2]: appeared to be potentiated
% Toxicity ([2]; human, 11520 min): 11%
half-life at 50 µM [3]: 1.33 min
half-life at 50 µM ([3]; t1/2 of hydrolysis by adenosine deaminase): 1.33 min
vmax ([3]; pH 7.4 and 37° C.): 2.3 × 10^-1 μmol/min/U
hydrolysis by ADA, times slower than ddA ([3]; vs ddA, 50 μM substrate): 17 times slower
hydrolysis by ADA, times slower than ddA [4]: ca. 10 times slower

O=c1[nH]cnc2c1ncn2[C@@H]1O[C@H](CO)C[C@@H]1F [Compound 1b, 2', 3'-dideoxy-2'-fluoroarabinosylhypoxanthine, reference compound]
logD ([5]; pH 7): -1.21 ± 0.02
deamination product / product formation (in words) ([3]; 0.7 U/mL ADA, 37° C.): the rate of formation of 1b corresponded to the rate of disappearance of 1f
in vitro activity against HIV (in words) [6]: known active inosine analogue

Nc1ncnc2c1ncn2[C@H]1CC[C@@H](CO)O1 [ddA, dideoxyadenosine, reference compound]
logD ([5]; pH 7, Log P): -0.29 ± 0.01
% Protection ([1]; 10 μM, with dCF (5 μm), 11520 min): 86%
inhibition at 10 µM ([1]; Human immunodeficiency virus 1, IIIB, ATH-8, 192 h, 10 μM, without dCF): 100%
cytotoxicity at 192 h, 10 µM ([7]; with dCF (5 μm)): 22%
cytotoxicity at 192 h, 10 µM ([7]; without dCF): 0%
toxicity in the presence of dCF (in words) ([2]; ATH8 cells, dCF added): appeared to be potentiated
t1/2 of hydrolysis by adenosine deaminase ([3]; 50 μM, extrapolated from 0.07 units/mL ADA to 0.7 units/mL, 37° C.): 0.083 min
half-life at 50 µM [3]: 0.0833 min

Nc1ccn([C@H]2CC[C@@H](CO)O2)c(=O)n1 [ddC, dideoxycytidine, reference compound]
logD ([5]; pH 7, Log P): -1.33 ± 0.01
CNS entry (in words) [8]: failure of ddC to achieve significant CNS levels

Cc1ccc(C(=O)Nc2ccc(S(=O)(=O)O)c3cc(S(=O)(=O)O)cc(S(=O)(=O)O)c23)cc1NC(=O)c1cccc(NC(=O)Nc2cccc(C(=O)Nc3cc(C(=O)Nc4ccc(S(=O)(=O)O)c5cc(S(=O)(=O)O)cc(S(=O)(=O)O)c45)ccc3C)c2)c1 [suramin]
HIV replication in presence of compound (in words) [6]: HIV replication is considerably slower

antimoniotungstate
HIV replication in presence of compound (in words) [6]: HIV replication is considerably slower
